# Laboratory results reported in US8628770B2, “Slimming cosmetic composition containing a substance inducing the production of IL-6” (Sanofi, priority 1999, dated 2014).
# System: mature adipocytes 3T3-L1
# Assay: Production of IL-6 by the mature adipocytes 3T3-L1 (ELISA)
# Type: cell-based, murine
# Details: reference IL-6 inducer at 50 ng/ml
# Source text: The biological effects of substance C in vitro has been studied on the murine line 3T3-L1. This preadipocyte line, routinely cultured in DMEM medium ([…]) enriched with 10% foetal calf serum has the property of differentiating into mature adipocytes in the presence of inducers such as insulin and indomethacin (Slieker L. J. Biochem. Biophys. Res. Com. 1998, 251, 225-229). […] This passage from the stage of immature cell to the stage of functional adipocyte can be morphologically assessed by the appearance of intracytoplasmic lipid storage vesicles which are visible under the microscope or which can be biochemically detected by measuring the production of leptin, the hormone for satiety produced solely by mature adipocytes.
# The influence of substance C on the adipocyte activity was evaluated at two levels. […]
# Mature adipocytes 3T3-L1 (harvested after 10 days of differentiation induced by the insulin (5 μg/ml) and indomethacin (125 μm) combination) are stimulated with substance C at 1% (v/v) for 24 hours. The culture supernatant is then removed and its IL-6 content measured by ELISA (Enzyme Linked Immunosorbent Assay) according to the supplier's instructions (R&D Systems, Abingdon, GB). […]
substance,measurement,value
TNF-α,IL-6 content of culture supernatant,52 pg/mL
